Reference: patent US20190083497A1, “MODULATION OF BLOOD BRAIN BARRIER PERMEABILITY” (Cornell University, priority 2008, published 2019)

What was measured:
[1] = tested on: hCMEC/D3 cells; assay: Jurkat cell migration across hCMEC/D3 transwell in vitro BBB; assay type: cell-based, human; conditions: hCMEC/D3 on Transwell; migrated cells counted after 24 hours
From the text: The blood brain barrier (BBB) is comprised of endothelial cells. During late stages of EAE, lymphocytes are known to cross the BBB. In order to determine if adenosine receptor stimulation of brain endothelial cells could promote lymphocyte migration through the BBB, an in vitro BBB was established. The human brain endothelial cell line hCMEC/D3 (Weksler et al., “Blood-brain Barrier-specific Properties of a Human Adult Brain Endothelial Cell Line,” J. Neurochem. 19(13):1872-4 (2005); Poller et al., “The Human Brain Endothelial Cell Line hCMEC/D3 as a Human Blood-brain Barrier Model for Drug Transport Studies,” J. Neurochem. 107(5):1358-1368 (2008), which are hereby incorporated by reference in their entirety) was obtained, which has been previously described as having BBB properties.
hCMEC/D3 cells were seeded onto Transwell and allowed to grow to confluencey. 2×10^6 Jurkat cells were added to the upper chamber with or without NECA (general adenosine receptor [AR] agonist), CCPA (A1AR agonist), CGS 21680 (A2AAR agonist), or DMSO vehicle. After 24 hours, migrated cells in the lower chamber were counted. Values are relative to the number of cells that migrate through non-HCMECD3 seeded transwells.

[2] = tested on: Z310 cells; assay: Jurkat cell migration across Z310 choroid plexus cell transwell; assay type: cell-based, murine; conditions: Z310 cells on Transwell; migrated cells counted after 24 hours; n=1
Protocol: The choroid plexus (“CP”) controls lymphocyte migration into the CNS. The CP expresses the A1 and A2a adenosine receptors. EAE is prevented in mice when A2a adenosine receptor activity is blocked. EAE is enhanced when the A1 adenosine receptor is missing. It was hypothesized that A2a adenosine receptor activation promotes lymphocyte migration across the CP. Z310 cells are a murine choroid plexus cell line. To test the hypothesis, Transwell membranes were seeded with Z310 cells and allowed to grow to confluencey. 2×10^6 Jurkat cells were added to the upper chamber with or with out NECA (n=1, general AR agonist), CCPA (n=1, A1AR agonist), CGS 21680 (n=1, A2AAR agonist), or DMSO vehicle(n=1). After 24 hours, migrated cells in the lower chamber were counted. Values are relative to the number of cells that migrate through non-Z310 seeded transwells and the results are shown in FIG. 12.

[3] = tested on: hCMEC/D3 cells; assay: cAMP levels in hCMEC/D3 cells (cAMP Screen kit); assay type: cell-based, human; conditions: 15 minutes treatment
Protocol: Adenosine receptor activation regulates cAMP levels in cells. In order to determine the sensitivity of human brain endothelial cells to adenosine receptor induced cAMP regulation, human brain endothelial cells were cultured with adenosine receptor agonists at various concentrations, followed by cAMP level analysis, as shown in FIG. 13.
HCMECD3 cells were grown to confluencey on 24 well plates. As adenosine receptor (“AR”) stimulation is known to influence cAMP levels, cells were treated with or without various concentrations of NECA (general AR agonist), CCPA (A1AR agonist), CGS 21680 (A2AAR agonist), DMSO vehicle, or Forksolin (induces cAMP). After 15 minutes, lysis buffer was added and the cells were frozen at −80 C to stop the reaction. Duplicate samples were used for each condition. cAMP levels were assayed using a cAMP Screen kit (Applied Biosystems, Foster City, Calif.).

[4] = tested on: EAE-induced mice; assay: EAE induction and scoring (MOG35-55/CFA + pertussis toxin); assay type: in vivo, mouse
Protocol: C57BL/6 and tcrα^−/− mice on the C57BL/6 background were purchased from The Jackson Laboratories. Mice were bred and housed under specific pathogen-free conditions at Cornell University or the University of Turku. For adenosine receptor blockade experiments, mice were given drinking water supplemented with 0.6 g/L of caffeine (Sigma) or 2 mg/kg SCH58261 (1 mg/kg s.c. and 1 mg/kg i.p.) in DMSO (45% vol. in PBS) or 45% DMSO alone starting 1 day before EAE induction and continuing throughout the experiment. All procedures performed on mice were approved by the relevant animal review committee.
EAE was induced by subjecting mice to the myelin oligodendrocyte glycoprotein (“MOG”) EAE-inducing regimen as described in Swanborg, “Experimental Autoimmune Encephalomyelitis in Rodents as a Model for Human Demyelinating Disease,” Clin. Immunol. […] Briefly, a 1:1 emulsion of MOG35-55 peptide (3 mg/ml in PBS) (Invitrogen) and complete Freund's adjuvant (CFA, Sigma) was injected subcutaneously (50 μl) into each flank. Pertussis toxin (PTX, 20 ng) (Biological Laboratories Inc.) was given intravenously (200 μl in PBS) at the time of immunization and again 2 days later. Mice were scored daily for EAE based on disease symptom severity; 0=no disease, 0.5 -1=weak/limp tail, 2=limp tail and partial hind limb paralysis, 3=total hind limb paralysis, 4=both hind limb and fore limb paralysis, 5=death. Mice with a score of 4 were euthanized.
Wild type mice were given 1 mg/kg of SCH58261 in DMSO or DMSO alone both i.p. and s.c. (for a total of 2 mg/kg) 1 day prior to EAE induction and daily for 30 days throughout the course of the experiment (FIG. 7C).

[5] = tested on: blood brain barrier; assay: FITC-Dextran extravasation through the brain endothelium; assay type: in vivo, mouse; conditions: 30 minutes after IP FITC Dextran
Protocol: In order to examine the effects of caffeine, a general adenosine receptor antagonist, on blood brain barrier permeability, mice were fed caffeine for several days and then injected with FITC Dextran, commonly used to assess endothelial permeability.
More particularly, mice were fed 0.6 g/l caffeine (Sigma, St. Louis, Mo.) in water or regular water ad lib for five days. Mice were injected IP with FITC Dextran (10,000 MW, Molecular Probes, Eugene, Oreg.) and after 30 minutes mice were perfused with ice cold PBS via the left ventricle. Brains were removed and snap frozen in OCT (Tissue Tek, Torrance, Calif.) and stored at −80° C. until sectioning. Tissue sections (5 μm) were stained with hematoxylin for light microscopy and with DAPI for a fluorescent counterstain.

In the case of `CCNC(=O)[C@H]1O[C@@H](n2cnc3c(N)nc(NCCc4ccc(CCC(=O)O)cc4)nc32)[C@H](O)[C@@H]1O` [CGS], the “lymphocyte (Jurkat) migration across the in vitro BBB” value [1] is reported as “promoted lymphocyte migration across the in vitro BBB when used at a lower concentration”, the “lymphocyte (Jurkat) migration across the CP” value [2] is reported as “promoted lymphocyte migration across the CP” and the cAMP levels ([3]; various concentrations) is reported as “slightly increased cAMP levels”.

`OC[C@H]1O[C@@H](n2cnc3c(NC4CCCC4)nc(Cl)nc32)[C@H](O)[C@@H]1O` [CCPA] was tested, and the “lymphocyte (Jurkat) migration across the in vitro BBB” value [1] was “induced lymphocyte migration at high levels”, the “lymphocyte (Jurkat) migration across the CP” value [2] was “induced lymphocyte migration at high levels” and the cAMP levels ([3]; high levels of the agonist) was “increased cAMP levels”.

For `Cn1c(=O)c2c(ncn2C)n(C)c1=O` [caffeine], the “EAE development (mean EAE score)” value ([4]; cd73-/- mice, caffeine 0.6 g/L in drinking water from 1 day prior to and throughout the EAE experiment) was “did not develop EAE”, the “EAE development (mean EAE score)” value ([4]; wild type mice, caffeine 0.6 g/L in drinking water from 1 day prior to and throughout the EAE experiment) was “dramatically protected against EAE development” and the “FITC-Dextran extravasation across the blood brain barrier (green color of brain sections)” value ([5]; CD73-/- mice fed 0.6 g/l caffeine in water for five days) was “much less intense green color than wild type mice”. For the same molecule, the “FITC-Dextran extravasation across the blood brain barrier (green color of brain sections)” value ([5]; wild type mice fed 0.6 g/l caffeine in water for five days) was “intensely green background”.

B1: PEG-ADA: Pegylated adenosine deaminase (protein, UniProt P56658 2-363, looked up)
Adenosine deaminase: AQTPAFNKPKVELHVHLDGAIKPETILYYGRKRGIALPADTPEELQNIIGMDKPLSLPEFLAKFDYYMPAIAGCREAVKRIAYEFVEMKAKDGVVYVEVRYSPHLLANSKVEPIPWNQAEGDLTPDEVVSLVNQGLQEGERDFGVKVRSILCCMRHQPSWSSEVVELCKKYREQTVVAIDLAGDETIEGSSLFPGHVKAYAEAVKSGVHRTVHAGEVGSANVVKEAVDTLKTERLGHGYHTLEDATLYNRLRQENMHFEVCPWSSYLTGAWKPDTEHPVVRFKNDQVNYSLNTDDPLIFKSTLDTDYQMTKNEMGFTEEEFKRLNINAAKSSFLPEDEKKELLDLLYKAYGMPSPASAEQCL
modifications: PEG
notes: Pegylated adenosine deaminase
For B1, the “EAE development (mean EAE score)” value ([4]; wild type mice, 15 units/kg body weight i.p. every 4 days, vs PBS vehicle) was “inhibits development of EAE in wild type mice”.
